Laboratory results from PubChem BioAssay (NCI).
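Values below derive from 48-hour exposures of cells grown in 96-well plates, with endpoints linearly interpolated between the two concentrations bracketing the appropriate inhibition level. Abbreviation: GI50, concentration required for 50% inhibition of growth. Definition used: TGI = concentration required for complete inhibition of growth.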

Tests used:
Experiment in all cases: DTP human tumour cell line panel, 48 h
786-0 renal = system: 786-0 renal
A498 renal = system: A498 renal
A549 NSCLC = system: A549 NSCLC
ACHN renal = system: ACHN renal
BT-549 breast = system: BT-549 breast
CAKI-1 renal = system: CAKI-1 renal
CCRF-CEM leukemia = system: CCRF-CEM leukemia
COLO 205 colon = system: COLO 205 colon
DU-145 prostate = system: DU-145 prostate
EKVX NSCLC = system: EKVX NSCLC
HCT-116 colon = system: HCT-116 colon
HCT-15 colon = system: HCT-15 colon
HL-60(TB) leukemia = system: HL-60(TB) leukemia
HOP-62 NSCLC = system: HOP-62 NSCLC
HOP-92 NSCLC = system: HOP-92 NSCLC
HS 578T breast = system: HS 578T breast
HT29 colon = system: HT29 colon
IGROV1 ovarian = system: IGROV1 ovarian
K-562 leukemia = system: K-562 leukemia
KM12 colon = system: KM12 colon
LOX IMVI melanoma = system: LOX IMVI melanoma
M14 melanoma = system: M14 melanoma
MALME-3M melanoma = system: MALME-3M melanoma
MCF7 breast = system: MCF7 breast
MDA-MB-231 breast = system: MDA-MB-231 breast
MDA-MB-435 = system: MDA-MB-435
MOLT-4 leukemia = system: MOLT-4 leukemia
NCI-H226 lung = system: NCI-H226 lung
NCI-H23 lung = system: NCI-H23 lung
NCI-H460 lung = system: NCI-H460 lung
NCI-H522 lung = system: NCI-H522 lung
NCI/ADR-RES ovarian = system: NCI/ADR-RES ovarian
OVCAR-3 ovarian = system: OVCAR-3 ovarian
OVCAR-4 ovarian = system: OVCAR-4 ovarian
OVCAR-5 ovarian = system: OVCAR-5 ovarian
OVCAR-8 ovarian = system: OVCAR-8 ovarian
PC-3 prostate = system: PC-3 prostate
RPMI-8226 leukemia = system: RPMI-8226 leukemia
RXF 393 renal = system: RXF 393 renal
SF-268 CNS = system: SF-268 CNS
SF-295 CNS = system: SF-295 CNS
SF-539 CNS = system: SF-539 CNS
SK-MEL-2 melanoma = system: SK-MEL-2 melanoma
SK-MEL-28 melanoma = system: SK-MEL-28 melanoma
SK-MEL-5 melanoma = system: SK-MEL-5 melanoma
SK-OV-3 ovarian = system: SK-OV-3 ovarian
SN12C renal = system: SN12C renal
SNB-19 CNS = system: SNB-19 CNS
SNB-75 CNS = system: SNB-75 CNS
SR leukemia = system: SR leukemia
SW-620 colon = system: SW-620 colon
T-47D breast = system: T-47D breast
TK-10 renal = system: TK-10 renal
U251 CNS = system: U251 CNS
UACC-257 melanoma = system: UACC-257 melanoma
UACC-62 melanoma = system: UACC-62 melanoma
UO-31 renal = system: UO-31 renal

## CCOC(=O)c1c(-c2ccccc2)n2c(=O)cc(C)c3c(O)c(O)cc1c32
786-0 renal
  GI50: 11.7 µM
  TGI: 53.7 µM
A498 renal
  GI50: 13 µM
  TGI: 37.6 µM
A549 NSCLC
  GI50: 5.46 µM
  TGI: 24.6 µM
ACHN renal
  GI50: 5.94 µM
  TGI: 43.1 µM
BT-549 breast
  GI50: 7.08 µM
  TGI: 24.1 µM
CAKI-1 renal
  GI50: 9.84 µM
  TGI: 36.2 µM
CCRF-CEM leukemia
  GI50: 1.59 µM
  TGI: 13.9 µM
COLO 205 colon
  GI50: 11 µM
  TGI: 28.2 µM
DU-145 prostate
  GI50: 10.5 µM
  TGI: 23.9 µM
EKVX NSCLC
  GI50: 8.73 µM
  TGI: 24.3 µM
HCT-116 colon
  GI50: 2.8 µM
  TGI: 11.9 µM
HCT-15 colon
  GI50: 1.66 µM
  TGI: 19.5 µM
HL-60(TB) leukemia
  GI50: 3.34 µM
  TGI: 10.8 µM
HOP-62 NSCLC
  GI50: 11.1 µM
  TGI: 54.5 µM
HOP-92 NSCLC
  GI50: 10.5 µM
  TGI: 42.8 µM
HS 578T breast
  GI50: 14.7 µM
  TGI: 56.6 µM
HT29 colon
  GI50: 7.18 µM
  TGI: 84 µM
IGROV1 ovarian
  GI50: 4.99 µM
  TGI: 19.2 µM
K-562 leukemia
  GI50: 6.93 µM
  TGI: 22.7 µM
KM12 colon
  GI50: 6.74 µM
  TGI: 38.7 µM
LOX IMVI melanoma
  GI50: 4.96 µM
  TGI: 22.8 µM
M14 melanoma
  GI50: 5.84 µM
  TGI: 20.2 µM
MALME-3M melanoma
  GI50: 13.7 µM
  TGI: 33.6 µM
MCF7 breast
  GI50: 3.28 µM
  TGI: 13.4 µM
MDA-MB-231 breast
  GI50: 6.64 µM
  TGI: 27.7 µM
MDA-MB-435
  GI50: 15.7 µM
  TGI: > 100 µM
MOLT-4 leukemia
  GI50: 3.81 µM
  TGI: 17.7 µM
NCI-H226 lung
  GI50: 11.4 µM
  TGI: 42.1 µM
NCI-H23 lung
  GI50: 6.06 µM
  TGI: 37.5 µM
NCI-H460 lung
  GI50: 2.6 µM
  TGI: 25.3 µM
NCI-H522 lung
  GI50: 3.25 µM
  TGI: 11.6 µM
NCI/ADR-RES ovarian
  GI50: 2.47 µM
  TGI: > 100 µM
OVCAR-3 ovarian
  GI50: 2.38 µM
  TGI: 17 µM
OVCAR-4 ovarian
  GI50: 2.46 µM
  TGI: 11.4 µM
OVCAR-5 ovarian
  GI50: 22.5 µM
  TGI: 46.7 µM
OVCAR-8 ovarian
  GI50: 4.23 µM
  TGI: 22.1 µM
PC-3 prostate
  GI50: 6.94 µM
  TGI: 26 µM
RPMI-8226 leukemia
  GI50: 3.98 µM
  TGI: 17.9 µM
RXF 393 renal
  GI50: 11.9 µM
  TGI: 30.9 µM
SF-268 CNS
  GI50: 3.35 µM
  TGI: 20.2 µM
SF-295 CNS
  GI50: 6.75 µM
  TGI: > 100 µM
SF-539 CNS
  GI50: 4.56 µM
  TGI: 25.1 µM
SK-MEL-2 melanoma
  GI50: 4.09 µM
  TGI: 41.3 µM
SK-MEL-28 melanoma
  GI50: 12.7 µM
  TGI: 29.3 µM
SK-MEL-5 melanoma
  GI50: 4.44 µM
  TGI: 16.9 µM
SK-OV-3 ovarian
  GI50: 16 µM
  TGI: > 100 µM
SN12C renal
  GI50: 10.8 µM
  TGI: 35.1 µM
SNB-19 CNS
  GI50: 11.4 µM
  TGI: 35.7 µM
SNB-75 CNS
  GI50: 8.95 µM
  TGI: 88.1 µM
SR leukemia
  GI50: 3.59 µM
  TGI: 17.5 µM
SW-620 colon
  GI50: 4.74 µM
  TGI: 18.5 µM
T-47D breast
  GI50: 5.43 µM
  TGI: > 100 µM
TK-10 renal
  GI50: 22.7 µM
  TGI: > 100 µM
U251 CNS
  GI50: 4.98 µM
  TGI: 22.7 µM
UACC-257 melanoma
  GI50: 6.38 µM
  TGI: 28.7 µM
UACC-62 melanoma
  GI50: 7.94 µM
  TGI: 20.9 µM
UO-31 renal
  GI50: 8.39 µM
  TGI: 38.7 µM
